Data set [1] relates to P. aeruginosa PA14 established biofilm. Briefly: Dispersion of 24 h established biofilm in flow cell, CLSM/COMSTAT. The data set is classed as cell-based, Pseudomonas aeruginosa. The conditions noted are these: mean ± SEM; for biofilm biovolumes reduction: 37 °C. The method, then: For biofilm dispersion experiments, overnight cultures of P. aeruginosa strains were performed in LB medium at 37 °C for 18 h with shaking (180 rpm). Bacterial cells were then washed and adjusted to OD580 = 0.1 in 0.9% w/v NaCl. The bacterial suspensions were then used to form a biofilm for 24 h under hydrodynamic conditions at 37 °C. Briefly, each channel of the flow cell was inoculated with 300 µL of bacterial suspension. A 2 h attachment step was performed without flow. After 2 h, each channel was then pumped with a 2.5 mL h^–1 flow rate of LB medium during 24 h. Next, the 24 h old biofilm of P. aeruginosa was exposed for 2 h (or 30 min) to 300 µL of studied compounds (i.e., peptides, antibiotics, or a combination of peptide + antibiotics) or 300 µL of ultra‐pure distilled water (control condition), added to each channel of the flow cell and without flow. Prior to image acquisition, biofilm cultures were then rinsed with LB medium using 2.5 mL h^–1 flow rate for 15 min. Finally, biofilm cells were stained and then observed by CLSM.
The CLSM observations of biofilms were performed using a Zeiss LSM710 microscope (Carl Zeiss Microscopy, Oberkochen, Germany) using a x40 oil immersion objective. Bacteria into the biofilm were stained with 5 × 10^−6 M of SYTO9 green‐fluorescent dye (Invitrogen, Carlsbad, CA). Biofilm matrix components were stained using fluorescent dyes. To assess the eDNA relative abundance, 1 × 10^−6 M of DDAO (Invitrogen, Carlsbad, CA) was used. The polysaccharides β1‐3 and β1‐4 were labeled with CalcoFluor White M2R at 200 µg mL^−1 (Sigma‐Aldrich, USA). eDNA and polysaccharides values were normalized to biofilms’ biomass. The Live/Dead BacLight kit (Invitrogen, Carlsbad, CA) was used to examine bacterial viability in biofilms according to manufacturer instructions. Images were taken every micrometer throughout the whole biofilm depth. For visualization and processing of 3D image, the Zen 2.1 SP1 software (Carl Zeiss Microscopy, Oberkochen, Germany) was used. Quantitative analyses of images stacks were performed using the COMSTAT software (http://www.imageanalysis.dk/).^[ [77] ^] At least three image stacks from at least three independent experiments were used for each analysis.

For data set [2], the target named is T1, AmiC (Pseudomonas aeruginosa, UniProt P27017). Also on record: made in house. The following applies: cited from earlier work. From the text: […]; see 2.0 ± 0.3 × 10^−6 M for hCNP^[ [44] ^]). This is consistent with the van der Waals and hydrog ...
T1 sequence (P27017 whole entry): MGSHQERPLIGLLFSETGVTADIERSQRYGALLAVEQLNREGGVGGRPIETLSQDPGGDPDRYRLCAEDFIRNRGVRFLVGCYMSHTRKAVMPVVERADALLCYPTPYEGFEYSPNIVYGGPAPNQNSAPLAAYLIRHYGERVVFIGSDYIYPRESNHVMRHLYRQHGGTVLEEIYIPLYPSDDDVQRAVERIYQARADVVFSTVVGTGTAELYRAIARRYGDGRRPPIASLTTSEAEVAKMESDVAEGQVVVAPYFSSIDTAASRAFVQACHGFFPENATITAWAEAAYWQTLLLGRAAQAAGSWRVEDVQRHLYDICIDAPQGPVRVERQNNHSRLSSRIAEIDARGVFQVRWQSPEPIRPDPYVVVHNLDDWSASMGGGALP
Data set [3] has as its system human Ether-a-go-go Related Gene (hERG) channel.
The target of data set [4] is T1, AmiC. Put plainly: biochemical.
Experimental: Briefly, AmiC protein was labeled using the RED‐NHS labeling kit (NanoTemper Technologies). The labeling reaction was performed according to the manufacturer's instructions in the supplied labeling buffer using a 20 × 10^−6 M protein concentration and a molar dye:protein ratio ≈2:1, at RT for 30 min. […] The label:protein ratio was determined using photometry at 650 and 280 nm. Typically, a ratio of 0.8 was achieved.
For thermophoresis, each ligand dilution was mixed with one volume of AmiC, which led to a final concentration of AmiC of 50 × 10^−9 M and final ligand concentrations at half of the ranges above. Instrument parameters were adjusted with 50% light‐emitting diode power and 20% MST power. Data of three independently pipetted measurements were analyzed (NT.Analysis software version 1.5.41, NanoTemper Technologies) using the signal from Thermophoresis + T‐Jump.

Where two headings read alike, the source gives them in different places.

Turning to `C[C@@H](O)[C@H]1C(=O)N2C(C(=O)O)=C(SCCN=CN)C[C@H]12` [imipenem], the biofilm reduction in data set [1] (imipenem 0.5 µg mL^−1, 2 h, n = 5) came out at 69.8 ± 3.0%.
Consider `NC[C@H]1O[C@H](O[C@H]2[C@H](O)[C@@H](O[C@H]3O[C@H](CO)[C@@H](O)[C@H](N)[C@H]3O)[C@H](N)C[C@@H]2N)[C@H](N)C[C@@H]1O` [tobramycin], for which the biofilm biovolumes reduction turned out to be 79.0 ± 4.0% in data set [1] (tobramycin 10 µg mL^−1, 2 h, n = 3) and 76.6 ± 4.0% in data set [1] (tobramycin 50 µg mL^−1, 2 h, n = 4).
Consider Brain Natriuretic Peptide [hBNP], for which the “affinity for AmiC” value with AmiC [2] was “no affinity”.
Turning to C‐type Natriuretic Peptide [hCNP], the Kd with AmiC [2] (microscale thermophoresis, read-out: K D, binding to AmiC) is 2 ± 0.3 µM.
With polymyxin B, the biovolume reduction in data set [1] (polymyxin B 4 µg mL^−1, 2 h, n = 5) was found to be 70.0 ± 4.3%.
Regarding `CC[C@H](C)[C@@H]1NC(=O)[C@H](CCCNC(=N)N)NC(=O)[C@H](CC(=O)O)NC(=O)[C@H](CCSC)NC(=O)[C@H](CCCNC(=N)N)NC(=O)CNC(=O)CNC(=O)[C@H](Cc2ccccc2)NC(=O)[C@@H](NC(=O)[C@H](CO)NC(=O)[C@H](CO)NC(=O)[C@H](CCCNC(=N)N)NC(=O)[C@H](CCCNC(=N)N)NC(=O)[C@H](CC(C)C)NC(=O)[C@@H](N)CO)CSSC[C@@H](C(=O)N[C@@H](CC(N)=O)C(=O)N[C@@H](CO)C(=O)N[C@@H](Cc2ccccc2)C(=O)N[C@@H](CCCNC(=N)N)C(=O)N[C@@H](Cc2ccc(O)cc2)C(=O)O)NC(=O)CNC(=O)[C@H](CC(C)C)NC(=O)CNC(=O)[C@H](CO)NC(=O)[C@H](CCC(N)=O)NC(=O)[C@H](C)NC(=O)CNC1=O` [hANP, human Atrial Natriuretic Peptide], in data set [3], the “hERG cardiac channel conductance” value is recorded as “did not modify”. Also, on AmiC [4], the Kd is 5 ± 3 µM.

Source of the values: PMC8895129, “Pseudomonas aeruginosa Biofilm Dispersion by the Human Atrial Natriuretic Peptide” (Advanced Science, 2022).
